Legend:
[1] = molecular target: T1, Human PKMYT1 (Homo sapiens, UniProt Q99640); assay: PKMYT1 biochemical ADP-Glo enzymatic assay; settings: ADP-Glo
T1 construct: Human PKMYT1 75-362 was cloned as a TEV cleavable 6xHis fusion; 6xHis (TEV cleavable) (cleaved yes); made in house; host or cells: bacterial cells
T1 sequence (Q99640 75-362): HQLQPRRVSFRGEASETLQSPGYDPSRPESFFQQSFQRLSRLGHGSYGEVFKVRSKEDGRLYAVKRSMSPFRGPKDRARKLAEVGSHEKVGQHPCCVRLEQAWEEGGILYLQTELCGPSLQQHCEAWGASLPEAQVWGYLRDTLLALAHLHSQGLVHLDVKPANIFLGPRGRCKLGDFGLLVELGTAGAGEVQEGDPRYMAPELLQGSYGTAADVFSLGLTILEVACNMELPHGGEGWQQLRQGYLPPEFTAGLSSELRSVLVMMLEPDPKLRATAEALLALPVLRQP
Summary of the method: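 Measures inhibition of PKMYT1 autonomous ATP hydrolysis: bacterially expressed human enzyme (75-362, tag cleaved) at 15 nM with 500 µM ATP for 60 min at 26 °C, then ADP-Glo Max detection. IC50s accepted only when replicates agreed within 3-fold and curve r2 exceeded 0.9.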

[2] = molecular target: T2, WEE1 (Homo sapiens, UniProt P30291); assay: Selectivity versus WEE1 assay (ADP-Glo enzymatic assay); type: biochemical; settings: for IC50: ADP-Glo; for PKMYT1 vs. WEE1 selectivity: fold difference in selectivity for PKMYT1 over WEE1
T2 construct: purchased Thermo Fisher PR7373A
T2 sequence (P30291 whole entry): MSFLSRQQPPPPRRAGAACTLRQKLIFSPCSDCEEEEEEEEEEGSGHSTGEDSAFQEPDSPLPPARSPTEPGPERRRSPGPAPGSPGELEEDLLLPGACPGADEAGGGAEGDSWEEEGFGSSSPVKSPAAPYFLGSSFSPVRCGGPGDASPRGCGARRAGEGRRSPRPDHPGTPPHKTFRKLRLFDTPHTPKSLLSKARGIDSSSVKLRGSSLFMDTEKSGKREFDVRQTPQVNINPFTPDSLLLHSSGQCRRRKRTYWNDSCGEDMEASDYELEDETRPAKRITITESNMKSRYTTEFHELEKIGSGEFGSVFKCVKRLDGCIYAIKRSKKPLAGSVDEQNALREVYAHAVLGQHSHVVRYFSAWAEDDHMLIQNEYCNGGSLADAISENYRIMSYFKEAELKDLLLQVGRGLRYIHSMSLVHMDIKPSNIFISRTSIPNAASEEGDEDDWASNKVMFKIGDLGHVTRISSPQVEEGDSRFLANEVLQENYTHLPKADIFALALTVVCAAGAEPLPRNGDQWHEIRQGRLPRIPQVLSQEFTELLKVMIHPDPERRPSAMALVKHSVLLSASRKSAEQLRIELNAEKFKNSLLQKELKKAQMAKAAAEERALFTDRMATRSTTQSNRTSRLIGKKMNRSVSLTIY
Summary of the method: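 Same format as the PKMYT1 assay: WEE1 at 15 nM final with 30 µM ATP, 60 min at 26° C, ADP-Glo luminescence detection, IC50 by dose-response fitting.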

[3] = system: OVCAR 3 cells; assay: Cancer cell line proliferation assay, ATP-based cell viability (Cell Titre Glow), OVCAR 3 (CCNE1-amplified); settings: KYSE30 (normal CCNE1) GI50 vs. OVCAR 3 (CCNE1-amplified) GI50
Summary of the method: (§1)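 Proliferation of KYSE-30 (normal CCNE1) and CCNE1-amplified OVCAR 3 ovarian cancer cells treated with PKMYT1 inhibitors, read by Cell Titre Glow luminescence. GI50 is the concentration giving 50% growth inhibition.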

[4] = system: KYSE-30 cells; assay: Cancer cell line proliferation assay, ATP-based cell viability (Cell Titre Glow), KYSE-30 (normal CCNE1); settings: Homo sapiens, KYSE-30 cells (normal CCNE1), concentration that achieves 50% cell growth proliferation inhibition, read-out: KYSE30 Gl50
Summary of the method: as §1

[5] = molecular target: T3, Cellular PKMYT1 Biomarker CDK1 pT14 (Homo sapiens, UniProt Q99640); assay: Inhibition of cellular PKMYT1 biomarker CDK1 pT14 in OVCAR 3 cells (immunoblot); type: cell-based; settings: 20 hours incubation
T3 construct: read-out CDK1 phospho-T14 immunoblot
T3 sequence (Q99640 1-499): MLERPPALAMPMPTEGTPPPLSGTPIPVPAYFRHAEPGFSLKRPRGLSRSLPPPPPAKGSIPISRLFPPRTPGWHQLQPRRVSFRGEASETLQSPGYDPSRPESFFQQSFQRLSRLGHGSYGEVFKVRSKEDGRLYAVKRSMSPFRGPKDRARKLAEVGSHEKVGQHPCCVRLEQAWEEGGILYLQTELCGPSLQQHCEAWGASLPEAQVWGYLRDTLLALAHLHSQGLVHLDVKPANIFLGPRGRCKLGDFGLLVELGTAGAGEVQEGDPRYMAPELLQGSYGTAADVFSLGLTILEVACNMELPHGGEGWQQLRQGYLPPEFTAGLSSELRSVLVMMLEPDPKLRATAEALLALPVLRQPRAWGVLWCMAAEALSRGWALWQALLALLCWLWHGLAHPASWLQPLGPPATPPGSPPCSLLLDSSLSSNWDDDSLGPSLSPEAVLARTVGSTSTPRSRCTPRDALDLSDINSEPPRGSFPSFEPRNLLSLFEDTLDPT
Summary of the method: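 Confluent OVCAR 3 cells treated with a compound concentration range for 20 h at 37 °C. Lysates analysed by automated capillary immunoblot for CDK1 phospho-T14, with vinculin, fluorescence detection; IC50 by regression.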

[6] = PKMYT1 kinase domain 15 nM, banded values
[7] = 15 nM PKMYT1 kinase domain, 500 µM ATP, 60 minutes at 26° C., banded
[8] = 15 nM WEE1, 60 minutes at 26° C., banded
[9] = banded, ">N" = at least in this band but could be higher

SMILES | IC50 [1, 6] [nM] | IC50 ([2]; WEE1 15 nM, banded values) [nM] | PKMYT1 vs. WEE1 selectivity ([2]; banded) | Selectivity ratio KYSE30 Gl50 vs. OVCAR3 Gl50 [3] | GI50 [4] [nM] | IC50 [5] [nM] | IC50 [1, 7] [nM] | IC50 [2, 8] [nM] | PKMYT1 vs. WEE1 selectivity [2, 9]
Cc1cn(CC(=O)N2CCCC2c2ccccc2)nc1Nc1ncc(C(=O)Nc2c(C)ccc(O)c2C)s1 (stereo not drawn) [BAA-600, N-(3-hydroxy-2,6-dimethylphenyl)-2-((4-methyl-1-(2-oxo-2-(2-phenylpyrrolidin-1-yl)ethyl)-1H-pyrazol-3-yl)amino)thiazole-5-carboxamide] | < 50 | 1000 to 11000 | X (100-<1000 fold) | Y (>20 fold) | 500 to 5000 | < 100 | – | – | –
Cc1cn(C(CO)C(=O)N2CCCC2)nc1Nc1ncc(C(=O)Nc2c(C)ccc(O)c2C)s1 (stereo not drawn) [BAA-583, 2-((1-(3-Hydroxy-1-oxo-1-(pyrrolidin-1-yl)propan-2-yl)-4-methyl-1H-pyrazol-3-yl)amino)-N-(3-hydroxy-2,6-dimethylphenyl)thiazole-5-carboxamide] | < 50 | 1000 to 11000 | X (100-<1000 fold) | Y (>20 fold) | > 5000 | < 100 | – | – | –
Cc1cn(C(C)C(=O)N2CCCC2)nc1Nc1ncc(C(=O)Nc2c(C)ccc(O)c2C)s1 (stereo not drawn) [BAA-488, N-(3-hydroxy-2,6-dimethylphenyl)-2-((4-methyl-1-(1-oxo-1-(pyrrolidin-1-yl)propan-2-yl)-1H-pyrazol-3-yl)amino)thiazole-5-carboxamide] | < 50 | 1000 to 11000 | X (100-<1000 fold) | Y (>20 fold) | > 5000 | < 100 | – | – | –
Cc1ccc(NC(=O)c2ccc(C(F)(F)F)cc2)nc1Nc1ncc(C(=O)Nc2c(C)ccc(O)c2C)s1 [BAA-328, N-(3-Hydroxy-2,6-dimethylphenyl)-2-((3-methyl-6-(4-(trifluoromethyl)benzamido)pyridin-2-yl)amino)thiazole-5-carboxamide] | – | – | – | Y (>20 fold) | > 5000 | < 100 | 50 to 1000 | > 11000 | X (100-<1000 fold)
Cc1ccc(O)c(C)c1NC(=O)c1cnc(Nc2cccc(N3CCN(CCO)CC3)n2)s1 [BAA-432, N-(3-hydroxy-2,6-dimethylphenyl)-2-((6-(4-(2-hydroxyethyl)piperazin-1-yl)pyridin-2-yl)amino)thiazole-5-carboxamide] | < 50 | 1000 to 11000 | X (100-<1000 fold) | Y (>20 fold) | > 5000 | < 100 | – | – | –
CCN(CC)C(=O)C(C)n1cc(C)c(Nc2ncc(C(=O)Nc3c(C)ccc(O)c3C)s2)n1 (stereo not drawn) [BAA-510, 2-((1-(1-(diethylamino)-1-oxopropan-2-yl)-4-methyl-1H-pyrazol-3-yl)amino)-N-(3-hydroxy-2,6-dimethylphenyl)thiazole-5-carboxamide] | < 50 | 1000 to 11000 | X (100-<1000 fold) | Y (>20 fold) | > 5000 | < 100 | – | – | –
Cc1ccc(O)c(C)c1NC(=O)c1cnc(Nc2ccc3ncccc3n2)s1 [BAA-596, 2-((1,5-naphthyridin-2-yl)amino)-N-(3-hydroxy-2,6-dimethylphenyl)thiazole-5-carboxamide] | < 50 | > 11000 | Y (1000-5000 fold) | Y (>20 fold) | 500 to 5000 | 100 to 1000 | – | – | –
Cc1ccc(O)c(C)c1NC(=O)c1cnc(Nc2nc(N3CCN(C)CC3)ccc2Cl)s1 [BAA-414, 2-((3-chloro-6-(4-methylpiperazin-1-yl)pyridin-2-yl)amino)-N-(3-hydroxy-2,6-dimethylphenyl)thiazole-5-carboxamide] | < 50 | 1000 to 11000 | X (100-<1000 fold) | Y (>20 fold) | 500 to 5000 | < 100 | – | – | –
Cc1ccc(O)c(C)c1NC(=O)c1cnc(Nc2nn(C)c3ccc(F)cc23)s1 [BAA-453, 2-((5-fluoro-1-methyl-1H-indazol-3-yl)amino)-N-(3-hydroxy-2,6-dimethylphenyl)thiazole-5-carboxamide] | 50 to 1000 | > 11000 | X (100-<1000 fold) | Y (>20 fold) | > 5000 | < 100 | – | – | –
Cc1ccc(N)nc1Nc1ncc(C(=O)Nc2c(C)ccc(O)c2C)s1 [BAA-337, 2-((6-amino-3-methylpyridin-2-yl)amino)-N-(3-hydroxy-2,6-dimethylphenyl)thiazole-5-carboxamide] | – | – | – | Y (>20 fold) | 500 to 5000 | < 100 | < 50 | 1000 to 11000 | X (100-<1000 fold)
Cc1ccnc(Nc2ncc(C(=O)Nc3c(C)ccc(O)c3C)s2)c1F [BAA-424, 2-((3-fluoro-4-methylpyridin-2-yl)amino)-N-(3-hydroxy-2,6-dimethylphenyl)thiazole-5-carboxamide] | < 50 | > 11000 | Y (1000-5000 fold) | Y (>20 fold) | > 5000 | < 100 | – | – | –
CCc1cn(CCF)nc1Nc1ncc(C(=O)Nc2c(C)ccc(O)c2C)s1 [BAA-588, 2-((4-ethyl-1-(2-fluoroethyl)-1H-pyrazol-3-yl)amino)-N-(3-hydroxy-2,6-dimethylphenyl)thiazole-5-carboxamide] | < 50 | 1000 to 11000 | X (100-<1000 fold) | Y (>20 fold) | 500 to 5000 | < 100 | – | – | –
Cc1cn(C(CO)C(=O)N2CCCC2C(F)(F)F)nc1Nc1ncc(C(=O)Nc2c(C)ccc(O)c2C)s1 (stereo not drawn) [BAA-578, 2-((1-(3-hydroxy-1-oxo-1-(2-(trifluoromethyl)pyrrolidin-1-yl)propan-2-yl)-4-methyl-1H-pyrazol-3-yl)amino)-N-(3-hydroxy-2,6-dimethylphenyl)thiazole-5-carboxamide] | < 50 | 1000 to 11000 | X (100-<1000 fold) | Y (>20 fold) | > 5000 | < 100 | – | – | –
Cc1cn(CC(F)F)nc1Nc1ncc(C(=O)Nc2c(C)ccc(O)c2C)s1 [BAA-478, 2-((1-(2,2-difluoroethyl)-4-methyl-1H-pyrazol-3-yl)amino)-N-(3-hydroxy-2,6-dimethylphenyl)thiazole-5-carboxamide] | < 50 | 1000 to 11000 | X (100-<1000 fold) | Y (>20 fold) | > 5000 | < 100 | – | – | –
CCc1cn(CC(F)F)nc1Nc1ncc(C(=O)Nc2c(C)ccc(O)c2C)s1 [BAA-589, 2-((1-(2,2-difluoroethyl)-4-ethyl-1H-pyrazol-3-yl)amino)-N-(3-hydroxy-2,6-dimethylphenyl)thiazole-5-carboxamide] | < 50 | 1000 to 11000 | X (100-<1000 fold) | Y (>20 fold) | > 5000 | < 100 | – | – | –
